Values quoted from earlier work, collected in US20050255458A1, “Drug discovery assays based on the biology of chronic disease” (priority 2002, published 2005).
Read-outs that look alike come from different tables or passages of the source. Where a SMILES comes first, the peptide text is derived from it. [ ]: non-standard residue; d: D form. Aoe = N[C@@H](CCCCCC(=O)[C@@H]1CO1)C(=O)O

How the values were obtained:
[1] = system: anagen hair follicles; settings: cited from earlier work; for scalp hair growth: Philpott 1996
[2] = system: TF; settings: cited from earlier work; for effect on Cu^+2 induced procoagulant activity: probucol 20, vitamin E 50, BHT 50, U74389G 20 μmol/L
[3] = system: AR gene; settings: cited from earlier work
[4] = system: Rb; settings: cited from earlier work; for increase in Rb mRNA: MEL cells, maximum on day three of induction
[5] = system: ERK1/2; settings: cited studies, various cells; cited from earlier work
[6] = system: ERK; settings: cited from earlier work
[7] = biological target: T1, ACE (Oryctolagus cuniculus, UniProt P12822); settings: cited from earlier work
T1 construct: from tissue; host or cells: whole animal, in vivo (Watanabe rabbit)
T1 sequence (P12822 34-1310): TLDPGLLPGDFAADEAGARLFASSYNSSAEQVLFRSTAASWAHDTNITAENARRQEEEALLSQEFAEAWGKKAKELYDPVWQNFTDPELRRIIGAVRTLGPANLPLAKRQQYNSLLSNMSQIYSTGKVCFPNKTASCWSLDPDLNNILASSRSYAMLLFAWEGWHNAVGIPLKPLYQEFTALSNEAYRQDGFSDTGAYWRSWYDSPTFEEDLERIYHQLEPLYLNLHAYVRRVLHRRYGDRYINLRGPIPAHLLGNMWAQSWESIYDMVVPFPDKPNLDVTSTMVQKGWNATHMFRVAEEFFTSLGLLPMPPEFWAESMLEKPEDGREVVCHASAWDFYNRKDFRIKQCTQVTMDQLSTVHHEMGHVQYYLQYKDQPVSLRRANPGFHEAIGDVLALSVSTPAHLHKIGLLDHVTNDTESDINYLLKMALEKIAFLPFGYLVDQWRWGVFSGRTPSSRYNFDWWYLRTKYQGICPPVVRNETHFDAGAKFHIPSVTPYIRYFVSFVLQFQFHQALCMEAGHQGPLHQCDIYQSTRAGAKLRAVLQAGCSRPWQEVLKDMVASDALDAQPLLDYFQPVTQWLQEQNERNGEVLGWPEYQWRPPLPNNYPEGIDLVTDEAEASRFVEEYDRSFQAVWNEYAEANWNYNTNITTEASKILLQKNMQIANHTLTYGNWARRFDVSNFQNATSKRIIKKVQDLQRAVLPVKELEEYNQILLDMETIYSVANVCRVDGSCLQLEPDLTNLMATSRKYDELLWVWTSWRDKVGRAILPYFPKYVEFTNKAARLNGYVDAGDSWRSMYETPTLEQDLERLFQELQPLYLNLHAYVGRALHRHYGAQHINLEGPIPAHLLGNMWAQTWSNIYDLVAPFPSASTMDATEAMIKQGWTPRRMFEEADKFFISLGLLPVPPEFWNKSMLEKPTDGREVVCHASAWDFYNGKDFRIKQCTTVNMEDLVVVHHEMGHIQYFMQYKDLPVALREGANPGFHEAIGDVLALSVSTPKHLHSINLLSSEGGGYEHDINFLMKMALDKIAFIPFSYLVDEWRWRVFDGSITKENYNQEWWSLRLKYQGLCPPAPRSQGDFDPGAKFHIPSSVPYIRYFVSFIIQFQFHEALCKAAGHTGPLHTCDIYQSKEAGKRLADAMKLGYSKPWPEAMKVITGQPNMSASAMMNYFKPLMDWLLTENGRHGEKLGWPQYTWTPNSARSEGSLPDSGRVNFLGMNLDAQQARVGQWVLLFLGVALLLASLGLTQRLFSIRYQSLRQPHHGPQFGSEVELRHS

[8] = biological target: T2, ACE (Mus musculus, UniProt P09470); settings: cited from earlier work
T2 sequence (P09470 35-1312): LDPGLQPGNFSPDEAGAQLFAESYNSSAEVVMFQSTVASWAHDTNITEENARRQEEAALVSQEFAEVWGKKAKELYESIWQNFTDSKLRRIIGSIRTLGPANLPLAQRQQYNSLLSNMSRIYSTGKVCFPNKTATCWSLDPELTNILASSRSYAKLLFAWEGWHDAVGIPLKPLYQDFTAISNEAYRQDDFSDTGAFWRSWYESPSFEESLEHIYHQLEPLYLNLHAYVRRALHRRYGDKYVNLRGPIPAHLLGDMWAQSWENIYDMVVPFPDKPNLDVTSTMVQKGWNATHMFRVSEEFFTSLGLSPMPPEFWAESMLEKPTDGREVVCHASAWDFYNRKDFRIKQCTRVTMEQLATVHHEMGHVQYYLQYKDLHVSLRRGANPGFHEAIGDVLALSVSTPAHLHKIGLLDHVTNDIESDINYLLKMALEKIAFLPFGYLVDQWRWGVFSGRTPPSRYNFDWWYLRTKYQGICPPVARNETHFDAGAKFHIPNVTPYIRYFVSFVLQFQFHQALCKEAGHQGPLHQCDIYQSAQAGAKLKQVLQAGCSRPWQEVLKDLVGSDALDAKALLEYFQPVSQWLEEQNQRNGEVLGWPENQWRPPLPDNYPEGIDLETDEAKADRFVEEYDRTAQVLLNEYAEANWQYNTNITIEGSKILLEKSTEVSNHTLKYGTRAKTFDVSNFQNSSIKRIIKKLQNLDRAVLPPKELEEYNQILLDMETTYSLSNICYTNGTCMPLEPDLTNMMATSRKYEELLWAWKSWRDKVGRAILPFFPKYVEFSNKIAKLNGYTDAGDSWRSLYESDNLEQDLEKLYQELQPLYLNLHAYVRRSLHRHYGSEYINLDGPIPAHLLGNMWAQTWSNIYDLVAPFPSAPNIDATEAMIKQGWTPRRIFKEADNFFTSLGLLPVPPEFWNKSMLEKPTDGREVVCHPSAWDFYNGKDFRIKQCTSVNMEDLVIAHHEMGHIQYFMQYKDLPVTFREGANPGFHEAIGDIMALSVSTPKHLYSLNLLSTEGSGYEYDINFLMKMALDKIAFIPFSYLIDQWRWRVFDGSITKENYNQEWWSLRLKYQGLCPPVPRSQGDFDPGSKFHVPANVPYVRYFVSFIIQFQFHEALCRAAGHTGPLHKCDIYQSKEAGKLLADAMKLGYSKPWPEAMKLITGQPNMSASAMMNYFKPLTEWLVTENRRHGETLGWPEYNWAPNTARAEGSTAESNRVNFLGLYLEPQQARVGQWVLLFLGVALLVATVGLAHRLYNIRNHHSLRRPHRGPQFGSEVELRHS

[9] = system: obese (fa/fa) Zucker rats; settings: cited from earlier work
[10] = system: ERK; settings: A variety of cell types; cited from earlier work

Compound: CNc1ccc2oc(C[C@H]3O[C@@]4(CC[C@H]3C)O[C@H]([C@H](C)C(=O)c3ccc[nH]3)[C@H](C)C[C@H]4C)nc2c1C(=O)O [A 23187]
- hair growth ([1]; 6 days culture, A 23187 2 μM, TPA 1 μM, IL-1 100 ng per ml (Hoffmann 1997)): significantly inhibited hair growth

Compound: Cc1cc(C(C)(C)C)c(O)c(C(C)(C)C)c1 [BHT]
- effect on Cu^+2 induced procoagulant activity [2]: inhibited the Cu^+2 induced procoagulant activity

Compound: [Cu+2] [Cu+2]
- TF mRNA level ([2]; at 2 hours): 50%
- increase of TF mRNA ([2]; at 6 hours): 3.5 fold

Compound: CC(=O)O[C@]1(C(C)=O)CC[C@H]2[C@@H]3C=C(Cl)C4=CC(=O)[C@@H]5C[C@@H]5[C@]4(C)[C@H]3CC[C@@]21C [Cyproterone acetate]
- Effect on [mRNAAR] ([3]; LNCaP): ↓[mRNAAR]

Compound: C[S+](C)[O-] [DMSO, dimethyl sulfoxide]
- increase in Rb mRNA [4]: 11 fold

Compound: CC(=O)NCCCCCCNC(C)=O [HMBA, hexamethylene bisacetamide]
- cells irreversibly committed to differentiate ([4]; DS19/Sc9, 48 h of culture): Over 90%
- increase in Rb transcription ([4]; DS19/Sc9): 3.6 fold
- increase in total pRb ([4]; DS19/Sc9 asynchronous cultures): 2-to 3 fold
- increase in Rb mRNA [4]: 7 fold

Compound: C[C@]12C=CC(=O)C=C1CC[C@@H]1C2=CC[C@]2(C)[C@@H](C(=O)CN3CCN(c4cc(N5CCCC5)nc(N5CCCC5)n4)CC3)CC[C@@H]12.O=C(O)/C=C\C(=O)O [U74389G]
- effect on Cu^+2 induced procoagulant activity [2]: inhibited the Cu^+2 induced procoagulant activity

Compound: [Cu] [copper]
- phosphorylation of ERK1/2 [5]: phosphorylation of ERK1/2

Compound: CC[C@H]1CN2CCc3cc(OC)c(OC)cc3[C@@H]2C[C@@H]1C[C@H]1NCCc2cc(OC)c(OC)cc21 [emetine]
- c-mos expression and ERK phosphorylation ([6]; starfish eggs): inhibition of c-mos expression and ERK phosphorylation

Compound: C[C@]12CC[C@@H]3c4ccc(O)cc4CC[C@H]3[C@@H]1CCC2=O [estron]
- phosphorylation of ERK1/2 [5]: phosphorylation of ERK1/2

Compound: CC[C@H](C)[C@@H]1NC(=O)[C@H](Cc2ccc(O)cc2)NC(=O)[C@@H](N)CSSC[C@@H](C(=O)N2CCC[C@H]2C(=O)N[C@@H](CC(C)C)C(=O)NCC(N)=O)NC(=O)[C@H](CC(N)=O)NC(=O)[C@H](CCC(N)=O)NC1=O [oxytocin]
- phosphorylation of ERK1/2 [5]: phosphorylation of ERK1/2

Compound: CC(C)(Sc1cc(C(C)(C)C)c(O)c(C(C)(C)C)c1)Sc1cc(C(C)(C)C)c(O)c(C(C)(C)C)c1 [probucol]
- effect on Cu^+2 induced procoagulant activity [2]: inhibited the Cu^+2 induced procoagulant activity

Compound: C/C=C(/C)C(=O)O[C@H]1C(C)=C2[C@H]([C@@H]1OC(=O)CCCCCCC)[C@@](C)(OC(C)=O)C[C@H](OC(=O)CCC)[C@@]1(O)[C@H]2OC(=O)[C@@]1(C)O [thapsigargin]
- phosphorylation of ERK1/2 [5]: phosphorylation of ERK1/2

Compound: O=C1N[C@@H](Cc2ccccc2)C(=O)N2CCC[C@@H]2C(=O)N[C@@H](CCCCCC(=O)[C@@H]2CO2)C(=O)N[C@H]1Cc1ccccc1 [trapoxin] (cyclo(FF[dP][Aoe]))
- phosphorylation of ERK1/2 [5]: phosphorylation of ERK1/2

Compound: CC(/C=C/C(=O)NO)=C\[C@@H](C)C(=O)c1ccc(N(C)C)cc1 [trichostatin A]
- phosphorylation of ERK1/2 [5]: phosphorylation of ERK1/2

Compound: [Zn] [zinc]
- phosphorylation of ERK1/2 [5]: phosphorylation of ERK1/2

Compound: C[C@H](CSC(=O)c1ccccc1)C(=O)N1C[C@@H](Sc2ccccc2)C[C@H]1C(=O)O [zofenopril]
- decrease of aortic corrected cumulative lesion area ([7]; 0.5 mg/kg/day, 6 weeks): 34%
- decrease of common carotid corrected cumulative lesion area ([7]; 0.5 mg/kg/day, 6 weeks): 39%
- intimal presence of native LDL ([7]; p<0.01 vs placebo): decreased
- intimal presence of macrophage derived foam cells ([7]; p<0.05 vs placebo): decreased
- macrophage-derived foam cells staining in the intima ([8]; 1 mg/kg/day): significant decrease in macrophage-derived foam cells staining
- native LDL staining in the intima ([8]; 1 mg/kg/day): significant decrease in native LDL staining
- total lesion area compared to placebo ([8]; zofenopril 0.05 or 1, captopril 5, enalapril 0.5 mg/kg/day, 29 weeks): significantly decreased total lesion area

Compound: IL-β: printed IL-β, presumably IL-1β
- scalp hair growth [1]: inhibition of scalp hair growth

Compound: TNFα
- decrease of nighttime feeding (12 hours) ([9]; 50 ng/rat): 13%
- decrease of short-term feeding (4 hours) ([9]; 50 ng/rat): 17%
- decrease of total daily food intake ([9]; 50 ng/rat): 11%
- decrease of nighttime feeding (12 hours) ([9]; 100 ng/rat): 14%
- decrease of short-term feeding (4 hours) ([9]; 100 ng/rat): 20%
- decrease of total daily food intake ([9]; 100 ng/rat): 12%
- decrease of nighttime feeding (12 hours) ([9]; 500 ng/rat): 13%
- decrease of short-term feeding (4 hours) ([9]; 500 ng/rat): 20%
- decrease of total daily food intake ([9]; 500 ng/rat): 11%
- Effect on [ERK^phos] [10]: ↑[ERK^phos]
- AR transcription in run-on assays ([3]; LNCaP): No change in run-on
- Effect on [mRNAAR] ([3]; LNCaP): ↓[mRNAAR]
- scalp hair growth [1]: inhibition of scalp hair growth

Compound: estrogen
- growth of isolated hair follicles ([1]; Kondo 1990): growth inhibition

Compound: interferon-γ: ERK agent cytokine
- phosphorylation of ERK1/2 [5]: phosphorylation of ERK1/2

Compound: interleukin 1β: cytokine, ERK agent
- phosphorylation of ERK1/2 [5]: phosphorylation of ERK1/2

Compound: interleukin 6: cytokine, ERK agent
- ERK phosphorylation ([6]; AF-10 human B cell line): increased ERK phosphorylation
- ERK phosphorylation ([6]; LNCaP cells): increased ERK phosphorylation
- phosphorylation of ERK1/2 [5]: phosphorylation of ERK1/2
- AR mRNA ([3]; LNCaP (Lin 2001)): decreased AR mRNA

Compound: transforming growth factor β
- phosphorylation of ERK1/2 [5]: phosphorylation of ERK1/2

Compound: tumor necrosis factor α
- phosphorylation of ERK1/2 [5]: phosphorylation of ERK1/2
